Results published in patent publication US10882901B2, “Methods of treating diabetes by an adipocyte protein 2 specific antibody” (President and Fellows of Harvard College, priority 2009, dated 2021).
Entries after “also recorded” stand apart in the source; their conditions may differ.

Tests used:
[1] = system: differentiated adipocytes; assay: Adiponectin secretion into conditioned medium of differentiated adipocytes (immunoblot); format: cell-based; settings: inhibitors of classical secretory pathways
Source text: FIG. 7A is a photograph of an electrophonetic gel showing non-classical secretion of aP2. Conditioned medium from adipocytes treated with control, brefeldin A (Bref A) or monensin (Mon) were blotted using anti-aP2 or adiponectin antibodies. Whole cell lysate (WCL) was also blotted using anti-aP2 antibody.
(§1) Tissue protein lysate and conditioned medium from adipocytes were separated on SDS-PAGE gels and stained with Coomassie (Biorad Laboratory), or were detected with immunoblotting using the following antibodies: adiponectin from Santa Cruz Biotechnology, MFG-E8 from Calbiochem, caveolin-1 from BD Bioscience, AKT from Cell Signaling Technology. Flag-tagged aP2 was immunoprecipated using 4 ml of conditioned medium from transfected HEK 293 cells after incubation with 30 μl Flag agarose beads (Sigma) overnight at 4° C. Proteins bound to agarose beads were eluted with SDS loading buffer and resolved with SDS-PAGE.

[2] = system: differentiated adipocytes; assay: aP2 secretion into conditioned medium of differentiated adipocytes (immunoblot); format: cell-based; settings: for aP2 release from adipocytes treated with inhibitors of classical secretory pathways: conditioned medium blotted with anti-aP2; for lipolysis-induced aP2 secretion from adipocytes: co-treatment of adipocytes in which lipolysis was induced (IBMX/dbcAMP)
Source text: HEK 293 cells were maintained in DMEM with 10% fetal bovine serum. FABP-deficient cell lines were established as previously described. Cao, H. et al. Identification of a lipokine, a lipid hormone linking adipose tissue to systemic metabolism. Cell 134, 933-944 (2008). Makowski, L. et al. Lack of macrophage fatty-acid-binding protein aP2 protects mice deficient in apolipoprotein E against atherosclerosis. Nat Med 7, 699-705 (2001). Pre-adipocytes were maintained in DMEM with 10% bovine calf serum and differentiated into adipocytes in DMEM with 10% cosmic calf serum (CCS) using a standard differentiation protocol. To induce lipolysis, differentiated adipocytes were treated with forskolin at 20 nM, or IBMX 1 mM/dibutyryl cAMP 1 mM for one hour. For lipid treatments, 0.25 mM palmitate or stearate was dissolved in DMEM with 10% CCS and added to adipocytes cultured in 12-well plates. At the end of one hour, the medium was replaced with the same lipid-containing medium, and conditioned medium was collected an additional hour later. To collect fat explants, epididymal adipose tissue depots were dissected from mice and rinsed twice in PBS. Adipose tissue samples were then transferred into DMEM with 10% CCS and minced into an average size of 1 to 2 mm. The tissue explants were washed extensively with DMEM and cultured in DMEM containing 10% CCS. Lipolysis was induced in the same manner as adipocytes.
as §1

serum aP2 = assay: Serum aP2 in mice after isoproterenol-induced lipolysis; format: in vivo; settings: isoproterenol 10 mg/kg, blood 15 min following injection, vs vehicle
Method: Blood was collected from mice by tail bleeding after 6 hours of food withdrawal and spun in a microcentrifuge at 13,000 rpm for 30 minutes. Serum aP2 was determined with an ELISA system (Biovendor Inc.). […] To determine aP2 levels during lipolysis, blood was collected from 12 mice at baseline levels. After this, 6 mice were injected with isoproterenol (10 mg/kg body weight) and the other 6 received vehicle control. Blood samples were collected 15 min following injection for aP2 measurement.

[3] = Serum aP2 ELISA after recombinant aP2 injection or infusion; format: in vivo, mice
Method: FIG. 11 is a bar graph showing serum aP2 in WT mice after recombinant aP2 injection. Serum samples of mice were collected at indicated time points after aP2 injection and aP2 levels were determined with an aP2 ELISA.
FIG. 13 is a line graph showing Serum aP2 in FABP-deficient (DKO) mice during aP2 infusion. Serum samples were collected from FABP-deficient mice during aP2 infusion at indicated time points. Serum aP2 levels were determined with an aP2 ELISA.
Blood was collected from mice by tail bleeding after 6 hours of food withdrawal and spun in a microcentrifuge at 13,000 rpm for 30 minutes. Serum aP2 was determined with an ELISA system (Biovendor Inc.). To monitor nutritional regulation of serum aP2, blood samples were collected from mice immediately prior to the start of dark cycle after which animals were placed in cages without food. After 24 hours of fasting, a second set of blood samples were collected and food was provided. Final blood sampling was performed 4 hours after re-feeding. To determine aP2 levels during lipolysis, blood was collected from 12 mice at baseline levels. After this, 6 mice were injected with isoproterenol (10 mg/kg body weight) and the other 6 received vehicle control. Blood samples were collected 15 min following injection for aP2 measurement. […]

PEPCK and G6P = assay: Liver gluconeogenic gene expression by quantitative real-time PCR; format: in vivo; settings: WT mice infused with recombinant aP2 vs control protein
Method: FIG. 6K is a bar graph showing gene expression in livers of WT mice infused with control protein or recombinant aP2 (top panel) or mice on HFD injected with control or aP2 antibody (bottom panel). PEPCK and G6P in liver tissues were analyzed with quantitative real-time PCR. *, p<0.05.
Total RNA was isolated from liver tissues using Trizol reagent (Invitrogen). Reverse transcription was carried out with a superscript first-strand cDNA synthesis system (Applied Biosystems Inc.) using 1 μg of RNA. Quantitative, real-time RT-PCR was performed on a PCR thermal cycler (Applied Biosystems Inc.). The PCR program was: 2 min 30 s at 95° C. for enzyme activation, 40 cycles of 15 s at 95° C., 30 s at 58° C., and 1 min at 72° C. for extension. Melting curve analysis was performed to confirm the real-time PCR products. All quantitations were normalized to the 1 8S rRNA. Primer sequences used were the following: PEPCK, forward: […](SEQ ID NO: 5), reverse: CAGCAACTGCCCGTACTCC (SEQ ID NO: 6); G6P, forward: […] (SEQ ID NO:7), reverse: […] (SEQ ID NO: 8).

FABP-deficient mice = assay: Hyperinsulinemic-euglycemic clamp in FABP-deficient mice infused with recombinant aP2; format: in vivo
Method: The mice were fasted overnight before the experiments and were infused with Intralipid at 3 ml/kg/h (Abbott) and heparin (6 U/h) for 5 hours. […] Mice were catheterized as described above. Hyperinsulinemic-euglycemic clamps were performed by a modification of a reported procedure^15. After an overnight fast, HPLC purified [3H]-glucose (0.05 μCi/min; PerkinElmer Life and Analytical Sciences, Boston, Mass.) was infused during the 2-h basal period, and blood samples were collected at the end to estimate the rate of basal hepatic glucose production. After the basal period, a 120-min hyperinsulinemic-euglycemic clamp was conducted with a primed-continuous infusion of human insulin (Humulin R; Eli Lilly, Indianapolis, Ind.) at a rate of 12.5 mU/kg/min. Blood samples were collected at 20-min intervals for the immediate measurement of plasma glucose concentrations, and 25% glucose was infused at variable rates to maintain plasma glucose at basal concentrations. Insulin-stimulated whole-body glucose turnover was estimated with a continuous infusion of [3-^3H]-glucose throughout the clamps (0.1 μCi/min). All infusions were performed using flow-controlled microdialysis pumps (CMA/Microdialysis, North Chelmsford, Mass.). Blood samples were taken at 80, 85, 90, 100, 110, and 120 min after the start of clamps for the determination of plasma [^3H]-glucose, and ^3H2O concentrations. […]

[4] = system: WT mice maintained on regular chow diet; assay: Glucose tolerance test of regular diet mice injected with recombinant aP2; format: in vivo; settings: lean WT mice, recombinant aP2 100 μg twice a day for two weeks, vs control Gus protein
Source text: FIG. 6I is a line graph showing glucose tolerance test of mice on regular diet injected with control Gus protein or recombinant aP2 for two weeks. *, p<0.05. Mice with homozygous null mutations in aP2 and mall were backcrossed more than 12 generations into a C57BL/6J genetic background. Mice were maintained on regular chow diet (RD) or placed on high-fat diet (Research Diets, Inc) at 4 weeks of age for 20 weeks to induce dietary obesity. Leptin-deficient (ob/ob) mice were purchased from the Jackson laboratory. All mice were maintained on a 12-hour light and dark cycle. Glucose and insulin tolerance tests using standard methods. Recombinant aP2 or control Gus protein with 6×His tag was produced in E. coli and purified with B-PER 6×His Spin Purification Kit (Pierce Biotechnology, Inc). Proteins were further purified by removing endotoxin with a commercial system (Lonza Inc.). 100 μg of control or aP2 protein was injected into WT mice maintained on regular chow diet twice a day for two weeks. The rabbit polyclonal antibody against mouse aP2 was produced using recombinant, full-length aP2 protein and the antibody was purified from serum of the final bleed using the NAb™ Spin system (Pierce Biotechnology, Inc). Pre-immune serum was purified similarly and used as control. […]

## C[C@H]1CCC/C=C/[C@@H]2C[C@H](O)C[C@H]2[C@H](O)/C=C/C(=O)O1 [brefeldin A]
[1]
  adiponectin secretion from adipocytes: efficiently blocked adiponectin secretion
[2]
  aP2 release from adipocytes treated with inhibitors of classical secretory pathways: neither had any inhibitory effect

## diethylumbelliferyl phosphate [DEUP]
[2]
  lipolysis-induced aP2 secretion from adipocytes: completely blocked lipolysis-induced aP2 secretion

## CC[C@@]1([C@@H]2O[C@@H]([C@H]3O[C@@](O)(CO)[C@H](C)C[C@@H]3C)C[C@@H]2C)CC[C@H]([C@]2(C)CC[C@]3(C[C@H](O)[C@@H](C)[C@@H]([C@@H](C)[C@@H](OC)[C@H](C)C(=O)O)O3)O2)O1 [monensin]
[1]
  adiponectin secretion from adipocytes: efficiently blocked adiponectin secretion
[2]
  aP2 release from adipocytes treated with inhibitors of classical secretory pathways: neither had any inhibitory effect

## CC(C)NCC(O)c1ccc(O)c(O)c1 (centres unmarked) [isoproterenol]
Serum aP2
  serum aP2 levels: rapid increase in serum aP2 levels

## insulin
[2]
  lipolysis-induced aP2 secretion from adipocytes: aP2 secretion was suppressed

B1: recombinant aP2: Recombinant aP2 with 6×His tag produced in E. coli, purified, endotoxin removed (protein)
chain: CDAFVGTWKLVSSENFDDYMKEVGVGFATRKVAGMAKPNMIISVNGDLVTIRSESTFKNTEISFKLGVEFDEITADDRKVKSIITLDGGALVQVQKWDGKSTTIKRKRDGDKLVVECVMKGVTSTRVYERA
[3]; FABP-deficient mice, infusion 8 μg/kg/min
  serum aP2 levels during aP2 infusion: rapid increase in serum aP2 levels
[3]; WT mice on regular chow diet, injection
  serum aP2 levels after a single dose of recombinant aP2: increased levels of serum aP2 that lasted for several hours
PEPCK and G6P
  G6P gene expression in liver: significantly upregulated
  PEPCK gene expression in liver: significantly upregulated
FABP-deficient mice; FABP-deficient mice infused with recombinant aP2
  glucose metabolism rates: absence of alterations in glucose metabolism rates
FABP-deficient mice; FABP-deficient mice infused with recombinant aP2 for 4 hours, vs control protein
  basal hepatic glucose production (bHGP): significantly increased basal hepatic glucose production
[4]
  glucose tolerance in glucose tolerance test: mild glucose intolerance; also recorded: developed glucose intolerance
